Test results published in article PMC4789591, “Involvement of Daphnia pulicaria Sir2 in regulating stress response and lifespan” (Aging (Albany NY), 2016).

Biological target: T1, Daphnia Sir2 (Daphnia pulicaria, UniProt A0A0U3BSS1)
T1 construct: full-length ORF, N-terminal FLAG tag, pcDNA3.1-, in vitro translated in rabbit reticulocyte lysate (TNT T7), not purified; calculated mass 67 kD
T1 sequence (A0A0U3BSS1 1-601): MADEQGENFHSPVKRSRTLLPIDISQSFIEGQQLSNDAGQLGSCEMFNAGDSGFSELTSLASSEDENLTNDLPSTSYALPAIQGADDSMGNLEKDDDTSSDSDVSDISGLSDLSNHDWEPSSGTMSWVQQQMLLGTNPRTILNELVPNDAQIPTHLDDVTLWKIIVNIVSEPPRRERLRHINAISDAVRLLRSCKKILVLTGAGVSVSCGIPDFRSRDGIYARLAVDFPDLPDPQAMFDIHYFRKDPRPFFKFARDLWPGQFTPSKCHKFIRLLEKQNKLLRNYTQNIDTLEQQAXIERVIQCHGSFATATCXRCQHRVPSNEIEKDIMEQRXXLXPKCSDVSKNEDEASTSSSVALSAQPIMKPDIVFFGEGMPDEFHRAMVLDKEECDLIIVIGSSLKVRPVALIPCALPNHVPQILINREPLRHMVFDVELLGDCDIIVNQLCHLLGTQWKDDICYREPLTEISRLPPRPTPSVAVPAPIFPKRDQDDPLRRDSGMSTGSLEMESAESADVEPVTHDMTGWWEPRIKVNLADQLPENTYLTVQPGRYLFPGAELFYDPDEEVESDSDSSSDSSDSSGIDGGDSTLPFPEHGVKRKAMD
Assay: fluorogenic acetylated-peptide deacetylase assay (Abcam ab156065)
Assay type: biochemical
Details: in vitro translated protein in reticulocyte lysate, lysate background subtracted; inhibitor concentration not told for this test; peptidase-coupled

NC(=O)C1CCCc2c1[nH]c1ccc(Cl)cc21 (stereo not shown) [Ex527]
inhibition of deacetylase activity: human recombinant Sirt1 as well as Daphnia Sir2 activity is significantly diminished by the inhibitor
